{"source": "patent US9394544B2", "about": "“Ameliorating oxidative stress in neurodegenerative disease via Nox1 targeting” (University of Central Florida Research Foundation, Inc., priority 2013, dated 2016)", "key": {"[1]": {"tested_on": "Flag-tagged wild-type (WT) α-synuclein", "test": "Aggregation of overexpressed flag-tagged WT α-synuclein in N27 cells exposed to PQ", "type": "cell-based, rat", "experimental": "Human α-synuclein was cloned into the p3xFLAG-myc-CMV-23 expression vector (Sigma) for N- and C-terminal tagging with FLAG and Myc, respectively. For transient overexpression of tagged α-synuclein, N27 cells were plated onto 24-well plates with coverslips at 0.5×10^5 cells per well 1 d before transfection. The next day, cells were transiently transfected with FLAG-WTsyn-myc. Briefly, 1 μg of plasmid DNA was mixed with 6 μl of Lipofectamine 2000 (Invitrogen) in 100 μl of Opti-MEM for 20 min before addition in the culture. After 6 h of incubation, the culture medium was changed and 100 μl of Nox1 shRNA/LVX viral particle was added to each well. Cells were maintained for an additional 36 h before treatment with 800 μM or 1000 μM PQ for 8 and 24 h.\nAfter each respective treatment, cells were fixed in 4% paraformaldehyde (PFA) for 20 min and permeabilized with 0.1% Triton X-100 in PBS for 10 min. Blocking was performed by incubation with 20% goat or donkey serum in PBS containing 0.1% Tween 20 for 90 min at room temperature. […] For quantification of Flag^+ and α-synuclein^+ cells, >30 different fields per coverslip were analyzed on a Nikon inverted fluorescent microscope under a 20× and 40× magnification."}, "α-synuclein": {"tested_on": "α-synuclein", "test": "α-Synuclein aggregation (immunocytochemistry, PK resistance, A11) in N27 cells exposed to PQ", "type": "cell-based, rat", "conditions": "for increase in aggregated α-synuclein-positive cells vs control: 24 h", "experimental": "The same Nox1 shRNA used for AAV2 construct was cloned into a pLVX-shRNA2 vector containing zsGreen1 (Clontech). To make lentiviral particles, ViraPower Lentiviral Expression System (Invitrogen) was used. […]. For 6-well plates, 8 μg of each plasmid was mixed in a 1:1:1:1 ratio in 100 μl of Xfect polymer buffer and then added to the cells. After 48 h, the viral-containing medium was harvested and centrifuged briefly at 500×g for 10 min to remove cellular debris and supernatant recovered and kept at −80° C. until used.\nAfter each respective treatment, cells were fixed in 4% paraformaldehyde (PFA) for 20 min and permeabilized with 0.1% Triton X-100 in PBS for 10 min. Blocking was performed by incubation with 20% goat or donkey serum in PBS containing 0.1% Tween 20 for 90 min at room temperature. The cells were then incubated for 120 min at room temperature with the following primary antibodies, according to the aim of the experiment: goat anti-Nox1 (1:50), rabbit anti-TH (1:10,000), mouse anti-Flag (1:150), mouse anti-α-synuclein (1:150), and rabbit anti-A11 (2.5 μg/ml). After washing, cells were incubated for 120 min with the appropriate secondary antibodies conjugated to Alexa Fluor 647 or Alexa Fluor 488 (1:1000). For nuclear visualization coverslips were incubated with 2 μM Hoechst for 10 min. For quantification of Flag^+ and α-synuclein^+ cells, >30 different fields per coverslip were analyzed on a Nikon inverted fluorescent microscope under a 20× and 40× magnification.\nImmunocytochemistry for proteinase K (PK)-resistant α-synuclein was performed based on a methodology reported previously (Neumann et al., 2002), with some modifications. Briefly, fixed cells were permeabilized with 0.1% Tween 20 and then digested for 30 min at 37° C. with PK (10 μg/ml). PK was inactivated with 3 M guanidine thiocyanate in 10 mM Tris-HCl solution for 10 min. Between each step, cells were washed gently three times with PBS. Cells were then incubated for 60 min with blocking solution containing 10% donkey serum followed by an overnight incubation with mouse anti-α-synuclein antibody (1:150). The day after, cells were incubated with secondary antibodies conjugated to Alexa Fluor 647 donkey anti-mouse for 60 min and with 2 μM Hoechst solution for 10 min. For PK-resistant α-synuclein evaluation in rat SN, 40 μm sections from 4% PFA fixed tissues were washed twice in distillated water with 0.1% Tween 20, and then incubated for 30 min in TBST. The tissues were incubated for 90 min at 55° C. with 50 μg/ml PK in TBST and further washed three times in TBS. PK was denatured by incubating the tissues in a 3 M guanidine thiocyanate in 10 mM Tris-HCl solution for 10 min. […]"}}}
{"molecule": "C[n+]1ccc(-c2cc[n+](C)cc2)cc1", "note": "[PQ, paraquat]", "values": [{"measurement": "increase of flag-tagged WT α-synuclein aggregation vs control cells", "setting": "[1]", "value": 2.5, "unit": "fold"}, {"measurement": "A11 immunoreactivity vs controls", "setting": "α-synuclein", "value": "high A11 immunoreactivity"}, {"measurement": "PK-resistant α-synuclein immunoreactivity", "setting": "α-synuclein", "value": "higher PK-resistant α-synuclein immunoreactivity"}, {"measurement": "increase in aggregated α-synuclein-positive cells vs control", "setting": "α-synuclein; 800 μM", "value": 62, "unit": "%"}, {"measurement": "increase in aggregated α-synuclein-positive cells vs control", "setting": "α-synuclein; 1000 μM", "value": 64, "unit": "%"}]}
